Data: publication PMC9080521, “Molecular basis of rutin inhibition of protein disulfide isomerase (PDI) by combined in silico and experimental methods” (RSC Advances, 2018)
Converted amounts (≈) assume the structure as drawn.

Assays:
Water solubility = assay type: physicochemical
PDI = system: PDI; parameters: method as in PMID 22565308, PMID 26240139; details: dose-dependent; cited from earlier work
[1] = system: platelet aggregation and fibrin generation; details: cited from earlier work
ERp72 = system: ERp72; parameters: method as in PMID 22565308; details: cited from earlier work
full-length human PDI = full-length human PDI (Homo sapiens, UniProt P07237); experiment: Insulin reduction assay; assay type: biochemical; details: compound 100 μM, 1.5 μM protein, last read (100 min); PDI alone 1.125
Chain of full-length human PDI (P07237 18-508): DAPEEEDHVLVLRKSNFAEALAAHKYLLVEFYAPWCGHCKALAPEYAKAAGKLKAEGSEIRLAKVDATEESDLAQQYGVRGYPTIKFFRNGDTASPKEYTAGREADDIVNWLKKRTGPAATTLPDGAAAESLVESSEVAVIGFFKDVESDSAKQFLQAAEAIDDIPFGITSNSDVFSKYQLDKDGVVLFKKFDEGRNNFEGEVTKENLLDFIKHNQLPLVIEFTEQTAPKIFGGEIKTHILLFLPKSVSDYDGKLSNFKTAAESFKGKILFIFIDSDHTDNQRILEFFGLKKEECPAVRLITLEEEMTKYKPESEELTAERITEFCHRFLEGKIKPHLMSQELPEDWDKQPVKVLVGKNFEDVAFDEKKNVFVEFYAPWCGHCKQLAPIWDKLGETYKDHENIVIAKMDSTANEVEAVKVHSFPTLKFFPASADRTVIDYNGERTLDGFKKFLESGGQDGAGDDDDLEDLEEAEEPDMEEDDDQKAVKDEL
Procedure: (§1) The insulin reduction assay was performed to assess the enzymatic activity of PDI and its MBP-fused recombinant proteins. PDI can reduce insulin in the presence of dithiothreitol (DTT) along with increase in turbidity of the reaction mixture. We thus monitored spectrophotometrically the aggregation of reduced insulin through the increase of turbidity. The reductase activity was measured in 100 μL in presence of 600 μM insulin, 1.5 μM PDI and recombinant PDI proteins, 1 mM DTT, and with protein buffer (pH 7.4), at room temperature over 100 min by absorption at 650 nm. For inhibition assay, 100 μM of rutin, kaempferitrin, tiliroside and 2′-O-galloylhyperin or control buffer was added to the reaction system.

murine MBP-mPDI-b′xa′ = target: T1, murine MBP-mPDI-b′xa′ (Mus musculus, UniProt P09103); experiment: Insulin reduction assay; assay type: biochemical; details: rutin 100 μM, last read (100 min); MBP-mPDI-b′xa′ alone 0.832
T1 construct: MBP-mPDI-b′xa′ (236–477); His-tag; made in house; host or cells: E. coli BL21 (DE3)
T1 sequence (P09103 236-477): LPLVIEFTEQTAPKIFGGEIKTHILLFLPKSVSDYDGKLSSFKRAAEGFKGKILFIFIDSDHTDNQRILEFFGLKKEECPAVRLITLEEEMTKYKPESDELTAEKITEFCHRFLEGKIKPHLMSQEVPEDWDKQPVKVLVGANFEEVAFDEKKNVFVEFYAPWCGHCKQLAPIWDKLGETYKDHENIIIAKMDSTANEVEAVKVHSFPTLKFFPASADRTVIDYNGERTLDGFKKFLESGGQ
Procedure: as §1

[2] = mouse models, dose of 0.5 mg kg^−1

C[C@@H]1O[C@@H](OC[C@H]2O[C@@H](Oc3c(-c4ccc(O)c(O)c4)oc4cc(O)cc(O)c4c3=O)[C@H](O)[C@@H](O)[C@@H]2O)[C@H](O)[C@H](O)[C@H]1O [rutin]
solubility (Water solubility): ~200 µM (≈ 122 µg/mL) | IC50 of inhibition of PDI activities (PDI): micromolar range | reversal of inhibitory activities on PDI in vivo ([1]; mouse model, infusion of PDI b′x fragment): rapidly reversed | fibrin generation in vivo [1, 2]: blocked | platelet aggregation in vivo [1, 2]: blocked | inhibition of ERp72 (ERp72): did not inhibit | turbidity (OD650), raw kinetic read at 1:40:32 (full-length human PDI): 0.924 | turbidity (OD650), raw kinetic read at 1:40:32 (murine MBP-mPDI-b′xa′): 0.583
